This passage reports pKa results from ChEMBL document CHEMBL1134220, “The synthesis of beta-peptides containing guanidino groups” (Bioorg Med Chem Lett, 2001).

This data set in a line: pKa was determined. It counts as physicochemical.

With `N=C(N)N` [GUANIDINE], the pKa (usually the negative logarithm of the acid dissociation constant) is 13.5.
